Assay results from US10894784B2, “Heteroarylbenzimidazole compounds” (BAYER PHARMA AKTIENGESELLSCHAFT, priority 2015, dated 2021).

Molecular target: TBK1 (Homo sapiens (Human), UniProt Q9UHD2)
Assay: TBK1 low ATP kinase assay (in vitro assay 1)
Assay type: biochemical
Details: in vitro assay 1, read-out: TBK1 low ATP kinase assay IC50

TBK1, sequence (Q9UHD2 whole entry): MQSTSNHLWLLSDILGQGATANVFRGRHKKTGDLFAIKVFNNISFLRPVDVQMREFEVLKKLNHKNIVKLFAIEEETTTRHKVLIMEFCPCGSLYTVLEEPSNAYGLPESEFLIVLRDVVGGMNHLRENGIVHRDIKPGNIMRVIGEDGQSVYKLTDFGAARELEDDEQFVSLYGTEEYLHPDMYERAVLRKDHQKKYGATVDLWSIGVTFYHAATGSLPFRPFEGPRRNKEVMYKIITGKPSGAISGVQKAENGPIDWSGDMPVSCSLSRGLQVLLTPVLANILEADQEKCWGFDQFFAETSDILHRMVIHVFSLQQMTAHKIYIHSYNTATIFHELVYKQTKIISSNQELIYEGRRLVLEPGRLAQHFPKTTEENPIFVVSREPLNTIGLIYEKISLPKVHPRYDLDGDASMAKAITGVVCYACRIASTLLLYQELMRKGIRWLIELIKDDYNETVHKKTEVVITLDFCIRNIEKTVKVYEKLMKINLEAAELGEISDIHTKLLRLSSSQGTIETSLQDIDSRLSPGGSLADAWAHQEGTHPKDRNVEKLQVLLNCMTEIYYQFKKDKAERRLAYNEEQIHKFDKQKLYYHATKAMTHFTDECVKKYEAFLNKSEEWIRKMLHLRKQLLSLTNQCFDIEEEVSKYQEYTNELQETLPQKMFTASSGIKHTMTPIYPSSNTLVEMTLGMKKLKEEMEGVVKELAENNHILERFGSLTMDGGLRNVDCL

SMILES	IC50
Cc1nccc(-c2ccc3nc(Nc4cc(C(C)N5CCN(C(=O)C6CCC6)CC5)ccn4)[nH]c3c2)n1 (racemic) [Example 24.04.02, (rac)-cyclobutyl{4-[1-(2-{[6-(2-methylpyrimidin-4-yl)-1H-benzimidazol-2-yl]amino}pyridin-4-yl)ethyl]piperazin-1-yl}methanone]	16.1 nM
Cc1nnc(-c2ccc3nc(Nc4cc(CN5CCN(C(=O)OC(C)(C)C)CC5)ccn4)[nH]c3c2)o1 [Example 66.01.01, tert-butyl 4-[(2-{[6-(5-methyl-1,3,4-oxadiazol-2-yl)-1H-benzimidazol-2-yl]amino}pyridin-4-yl)methyl]piperazine-1-carboxylate]	33.3 nM
O=C(C1CC1)N1CCN(Cc2ccnc(Nc3nc4ccc(-c5cnn(CC6CC6)c5)cc4[nH]3)c2)CC1 [Example 39.01.03, cyclopropyl(4-{[2-({6-[1-(cyclopropylmethyl)-1H-pyrazol-4-yl]-1H-benzimidazol-2-yl}amino)pyridin-4-yl]methyl}piperazin-1-yl)methanone]	5.35 nM
COc1cncnc1-c1ccc2nc(Nc3cc(C(C)N4CCN(C(=O)CC(F)(F)F)CC4)ccn3)[nH]c2c1 (single isomer, unassigned) [Example 35.03.01.A, 3,3,3-trifluoro-1-{4-[(1R or 1S)-1-(2-{[6-(5-methoxypyrimidin-4-yl)-1H-benzimidazol-2-yl]amino}pyridin-4-yl)ethyl]piperazin-1-yl}propan-1-one]	3.85 nM
Cc1noc(-c2ccc3nc(Nc4cc(CN5CCN(C(=O)C6CCC6)CC5)ccn4)[nH]c3c2)n1 [Example 16.01.05, cyclobutyl{4-[(2-{[6-(3-methyl-1,2,4-oxadiazol-5-yl)-1H-benzimidazol-2-yl]amino}pyridin-4-yl)methyl]piperazin-1-yl}methanone]	146 nM
CC(c1ccnc(Nc2nc3ccc(-c4cc(C(F)(F)F)ncn4)cc3[nH]2)c1)N1CCN(C(=O)CC(F)(F)F)CC1 (single isomer, unassigned) [Example 29.02.01.B, 3,3,3-trifluoro-1-(4-{(1S or 1R)-1-[2-({6-[6-(trifluoromethyl)pyrimidin-4-yl]-1H-benzimidazol-2-yl}amino)pyridin-4-yl]ethyl}piperazin-1-yl)propan-1-one]	8.64 nM
COc1c(C)ncnc1-c1ccc2nc(Nc3cc(C(C)N4CCN(C(=O)C5(C(F)(F)F)CC5)CC4)ccn3)[nH]c2c1 (stereo not drawn) [Example 83.05, {4-[(1R or IS)-1-(2-{[6-(5-methoxy-6-methylpyrimidin-4-yl)-1H-benzimidazol-2-yl]amino}pyridin-4-yl)ethyl]piperazin-1-yl}[1-(trifluoromethyl)cyclopropyl]methanone]	2.9 nM
COc1nccc(-c2ccc3nc(Nc4cc(CN5CCN(C(=O)C6CCC6)CC5)ccn4)[nH]c3c2)n1 [Example 25.01.02, cyclobutyl{4-[(2-{[6-(2-methoxypyrimidin-4-yl)-1H-benzimidazol-2-yl]amino}pyridin-4-yl)methyl]piperazin-1-yl}methanone]	218 nM
COc1nccc(-c2ccc3nc(Nc4cc(CN5CCN(C(=O)C6CC6)CC5)ccn4)[nH]c3c2)n1 [Example 25.01.05, cyclopropyl{4-[(2-{[6-(2-methoxypyrimidin-4-yl)-1H-benzimidazol-2-yl]amino}pyridin-4-yl)methyl]piperazin-1-yl}methanone]	64.5 nM
COc1cncnc1-c1ccc2nc(Nc3cc(CN4CCN(S(=O)(=O)CCC(F)(F)F)CC4)ccn3)[nH]c2c1 [Example 35.01.09, 6-(5-methoxypyrimidin-4-yl)-N-[4-({4-[(3,3,3-trifluoropropyl)sulfonyl]piperazin-1-yl}methyl)pyridin-2-yl]-1H-benzimidazol-2-amine]	40.6 nM
CC(c1ccnc(Nc2nc3ccc(-c4cc(C(F)(F)F)ncn4)cc3[nH]2)c1)N1CCN(C(=O)CC(F)(F)F)CC1 (single isomer, unassigned) [Example 29.02.01.A, 3,3,3-trifluoro-1-(4-{(1R or 1S)-1-[2-({6-[6-(trifluoromethyl)pyrimidin-4-yl]-1H-benzimidazol-2-yl}amino)pyridin-4-yl]ethyl}piperazin-1-yl)propan-1-one]	92.3 nM
Cc1nccc(-c2ccc3nc(Nc4cc(CN5CCN(C(=O)C6CCC6)CC5)ccn4)[nH]c3c2)n1 [Example 24.01.02, cyclobutyl{4-[(2-{[6-(2-methylpyrimidin-4-yl)-1H-benzimidazol-2-yl]amino}pyridin-4-yl)methyl]piperazin-1-yl}methanone]	39.9 nM
CCOc1cnc(C)cc1-c1ccc2nc(Nc3cc(CN4CCN(C(=O)C5CCC5)CC4)ccn3)[nH]c2c1 [Example 09.04, cyclobutyl{4-[(2-{[6-(5-ethoxy-2-methylpyridin-4-yl)-1H-benzimidazol-2-yl]amino}pyridin-4-yl)methyl]piperazin-1-yl}methanone]	352 nM
CC(C)(C)Cc1nc(-c2ccc3nc(Nc4cc(CN5CCN(c6ccccc6Cl)CC5)ccn4)[nH]c3c2)no1 [Example 22.02, N-(4-{[4-(2-chlorophenyl)piperazin-1-yl]methyl}pyridin-2-yl)-6-[5-(2,2-dimethylpropyl)-1,2,4-oxadiazol-3-yl]-1H-benzimidazol-2-amine]	779 nM
COc1cnc(OCC2CC2)nc1-c1ccc2nc(Nc3cc(CN4CCN(C(=O)OC(C)(C)C)CC4)ccn3)[nH]c2c1 [Example 64.01.01, tert-butyl 4-{[2-({6-[2-(cyclopropylmethoxy)-5-methoxypyrimidin-4-yl]-1H-benzimidazol-2-yl}amino)pyridin-4-yl]methyl}piperazine-1-carboxylate]	217 nM
COc1cncnc1-c1ccc2nc(Nc3cc(C(C)N4CCN(C(=O)C5CC5)CC4)ccn3)[nH]c2c1 (single isomer, unassigned) [Example 35.03.03.B, cyclopropyl{4-[(1S or 1R)-1-(2-{[6-(5-methoxypyrimidin-4-yl)-1H-benzimidazol-2-yl]amino}pyridin-4-yl)ethyl]piperazin-1-yl}methanone]	31.7 nM
Cc1cc(-c2ccc3nc(Nc4cc(CN5CCN(C(=O)CC(F)(F)F)CC5)ccn4)[nH]c3c2)nc(C)n1 [Example 31.01, 1-{4-[(2-{[6-(2,6-dimethylpyrimidin-4-yl)-1H-benzimidazol-2-yl]amino}pyridin-4-yl)methyl]piperazin-1-yl}-3,3,3-trifluoropropan-1-one]	86.8 nM

Further lines, results first:

IC50	SMILES
17.8 nM	CC(C)Nc1ncnc(-c2ccc3nc(Nc4cc(CN5CCN(C(=O)C6CC6)CC5)ccn4)[nH]c3c2)c1F [Example 193.03, cyclopropyl(4-{[2-({6-[5-fluoro-6-(propan-2-ylamino)pyrimidin-4-yl]-1H-benzimidazol-2-yl}amino)pyridin-4-yl]methyl}piperazin-1-yl)methanone]
360 nM	Cc1noc(-c2ccc3nc(Nc4cc(CN5CCN(c6cnccn6)CC5)ccn4)[nH]c3c2)n1 [Example 101.13, 6-(3-methyl-1,2,4-oxadiazol-5-yl)-N-(4-{[4-(pyrazin-2-yl)piperazin-1-yl]methyl}pyridin-2-yl)-1H-benzimidazol-2-amine]
0.76 nM	CC(c1ccnc(Nc2nc3ccc(-c4cc(N5CCC5)ncn4)cc3[nH]2)c1)N1CCN(C(=O)CC(F)(F)F)CC1 (single isomer, unassigned) [Example 115.02, 1-(4-{(1R or 1S)-1-[2-({6-[6-(azetidin-1-yl)pyrimidin-4-yl]-1H-benzimidazol-2-yl}amino)pyridin-4-yl]ethyl}piperazin-1-yl)-3,3,3-trifluoropropan-1-one]
2100 nM	Cc1c(-c2ccc3nc(Nc4cc(CN5CCN(C(=O)CC(F)(F)F)CC5)ccn4)[nH]c3c2)ncnc1C(F)(F)F [Example 183.02, 3,3,3-trifluoro-1-(4-{[2-({6-[5-methyl-6-(trifluoromethyl)pyrimidin-4-yl]-1H-benzimidazol-2-yl}amino)pyridin-4-yl]methyl}piperazin-1-yl)propan-1-one]
1.1 nM	CC(c1ccnc(Nc2nc3ccc(-c4cnn(CC5CC5)c4)c(Cl)c3[nH]2)c1)N1CCN(C(=O)C2CC2)CC1 (single isomer, unassigned) [Example 122.03, (4-{(1R or 1S)-1-[2-({7-chloro-6-[1-(cyclopropylmethyl)-1H-pyrazol-4-yl]-1H-benzimidazol-2-yl}amino)pyridin-4-yl]ethyl}piperazin-1-yl)(cyclopropyl)methanone]
2.3 nM	CC(c1ccnc(Nc2nc3ccc(-c4cnn(CC(F)F)c4)cc3[nH]2)c1)N1CCN(C(=O)CC(F)(F)F)CC1 (single isomer, unassigned) [Example 87.01, 1-(4-{(1R or 1S)-1-[2-({6-[1-(2,2-difluoroethyl)-1H-pyrazol-4-yl]-1H-benzimidazol-2-yl}amino)pyridin-4-yl]ethyl}piperazin-1-yl)-3,3,3-trifluoropropan-1-one]
5.4 nM	CNc1cc(-c2ccc3nc(Nc4cc(CN5CCN(C(=O)C6CC6)CC5)ccn4)[nH]c3c2)ncn1 [Example 150.03, cyclopropyl(4-{[2-({6-[6-(methylamino)pyrimidin-4-yl]-1H-benzimidazol-2-yl}amino)pyridin-4-yl]methyl}piperazin-1-yl)methanone]
4.8 nM	CN(C)c1cc(-c2ccc3nc(Nc4cc(CN5CCN(C(=O)C6CC6)CC5)ccn4)[nH]c3c2)ncn1 [Example 143.03, cyclopropyl(4-{[2-({6-[6-(dimethylamino)pyrimidin-4-yl]-1H-benzimidazol-2-yl}amino)pyridin-4-yl]methyl}piperazin-1-yl)methanone]
4.18 nM	O=C(CC(F)(F)F)N1CCN(Cc2ccnc(Nc3nc4ccc(-c5ncnc6ccoc56)cc4[nH]3)c2)CC1 [Example 168.02, 3,3,3-trifluoro-1-{4-[(2-{[6-(furo[3,2-d]pyrimidin-4-yl)-1H-benzimidazol-2-yl]amino}pyridin-4-yl)methyl]piperazin-1-yl}propan-1-one]
340 nM	Cc1cccc(N2CCN(Cc3ccnc(Nc4nc5ccc(-c6nc(C)no6)cc5[nH]4)c3)CC2)n1 [Example 101.19, 6-(3-methyl-1,2,4-oxadiazol-5-yl)-N-(4-{[4-(6-methylpyridin-2-yl)piperazin-1-yl]methyl}pyridin-2-yl)-1H-benzimidazol-2-amine]
